The results in this text go back to ChEMBL document CHEMBL1145099, “Aloisines, a new family of CDK/GSK-3 inhibitors. SAR study, crystal structure in complex with CDK2, enzyme selectivity, and cellular effects” (J Med Chem, 2003).

The structures appear in SMILES notation.

For assay [1], the target named is Cyclin-dependent kinase 5/CDK5 activator 1 (Homo sapiens, UniProt Q00535). Put plainly: Inhibitory activity against recombinant mammalian cyclin-dependent kinase 5 (p35 NCK5a) expressed in Escherichia coli.
Chain of Cyclin-dependent kinase 5/CDK5 activator 1 (Q00535 whole entry): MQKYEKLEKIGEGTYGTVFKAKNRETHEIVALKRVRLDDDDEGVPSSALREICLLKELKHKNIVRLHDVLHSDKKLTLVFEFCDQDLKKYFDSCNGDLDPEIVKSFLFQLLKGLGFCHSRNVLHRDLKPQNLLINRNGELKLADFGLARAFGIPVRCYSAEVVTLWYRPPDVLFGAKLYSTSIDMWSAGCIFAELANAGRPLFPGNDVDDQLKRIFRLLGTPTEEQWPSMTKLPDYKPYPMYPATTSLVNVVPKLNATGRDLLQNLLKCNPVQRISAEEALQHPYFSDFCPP
Chain of Cyclin-dependent kinase 5/CDK5 activator 1 (Q15078 whole entry, further chain): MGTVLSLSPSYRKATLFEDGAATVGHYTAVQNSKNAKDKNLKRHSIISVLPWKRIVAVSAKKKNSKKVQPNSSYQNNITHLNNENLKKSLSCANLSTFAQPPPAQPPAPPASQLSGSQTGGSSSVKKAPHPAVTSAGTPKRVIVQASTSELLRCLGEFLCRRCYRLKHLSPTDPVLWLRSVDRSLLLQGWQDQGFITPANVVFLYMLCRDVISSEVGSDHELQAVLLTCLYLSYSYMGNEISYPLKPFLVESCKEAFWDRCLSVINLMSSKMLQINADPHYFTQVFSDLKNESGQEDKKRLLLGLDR
For assay [2], the target named is Glycogen synthase kinase-3 beta (Homo sapiens, UniProt P49841). Put plainly: Inhibition of glycogen synthase kinase-3 beta, purified from porcine brain or expressed in and purified from insect Sf9 cells. The format is cell-based, Sus scrofa.
Chain of Glycogen synthase kinase-3 beta (P49841 whole entry): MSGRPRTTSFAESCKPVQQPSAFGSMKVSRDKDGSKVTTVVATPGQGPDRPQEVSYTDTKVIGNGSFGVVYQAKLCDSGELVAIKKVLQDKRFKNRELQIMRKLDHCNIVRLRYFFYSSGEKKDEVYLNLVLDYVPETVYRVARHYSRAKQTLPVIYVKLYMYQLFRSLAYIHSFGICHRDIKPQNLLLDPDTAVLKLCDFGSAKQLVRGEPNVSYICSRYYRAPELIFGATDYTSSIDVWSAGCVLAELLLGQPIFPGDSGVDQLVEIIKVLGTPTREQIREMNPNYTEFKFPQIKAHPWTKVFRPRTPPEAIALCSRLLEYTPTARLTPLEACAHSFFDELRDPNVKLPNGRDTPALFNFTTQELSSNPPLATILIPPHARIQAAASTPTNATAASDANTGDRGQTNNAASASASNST
The target of assay [3] is CDK1/cyclin B (Marthasterias glacialis).

By IC50 is commonly meant the midpoint of a concentration-inhibition curve. Take `Cc1c(-c2ccc(OS(=O)(=O)N(C)C)cc2)[nH]c2nccnc12`: the IC50 in assay [1] amounted to 0.9 µM; in assay [2] it was 0.5 µM; in assay [3] it was 0.7 µM.

Turning to `c1ccc(-c2cc3[nH]ccnc-3n2)nc1`, the IC50 in assay [1] is 53 µM; in assay [2], 15 µM; in assay [3], 21 µM.

As to `CCCCCCCc1c(-c2ccc(OC)cc2)[nH]c2nccnc12`, the IC50 is above 100 µM in assay [1], above 10 µM in assay [2] and 7 µM in assay [3].

With `Oc1ccc(-c2cc3[nH]ccnc-3n2)cc1`, the IC50 was determined as 1 µM in assay [1], 1.2 µM in assay [2] and 1.2 µM in assay [3].

Turning to `c1ccc(-c2cc3[nH]c4ccccc4nc-3n2)cc1`, the IC50 in assay [1], in assay [2] and in assay [3] was above 100 µM throughout.

On to `CCCc1c(-c2ccc(OC)cc2)[nH]c2nccnc12`, for which the IC50 in assay [1] came out at 0.5 µM; in assay [2] it was 0.4 µM; in assay [3], 0.4 µM.

In the case of `Cc1c(C2(c3ccc(Cl)cc3)CC2)[nH]c2nccnc12`, the IC50 in assay [1] is 100 µM; in assay [2], 18 µM.

Take `COc1ccc(-c2[nH]c3nccnc3c2CCCCl)cc1`: the half-maximal inhibitory concentration (IC50) was 3 µM in assay [1] and 2.5 µM in assay [2].

With `COc1ccccc1-c1cc2[nH]ccnc-2n1`, the IC50 turned out to be 23 µM in assay [1], 3.3 µM in assay [2] and 20 µM in assay [3].

With `c1ccc(Cc2c(-c3ccccc3)[nH]c3nccnc23)cc1`, the IC50 in assay [1] is above 100 µM; in assay [2], 1 µM; in assay [3] it was 2 µM.

Turning to `Cc1c[nH]c2cc(-c3ccccc3)nc-2n1`, the IC50 was 100 µM in assay [1], above 100 µM in assay [2] and 69 µM in assay [3].

In turn, `Oc1cccc(-c2cc3[nH]ccnc-3n2)c1` returned an IC50 in assay [3] of 2.5 µM.

For the molecule `CC(C)c1c(-c2ccc(Cl)cc2)[nH]c2nccnc12`, the IC50 is 13 µM in assay [1], 0.75 µM in assay [2] and 0.85 µM in assay [3].

With `C=CCc1c(-c2ccc(OC)cc2)[nH]c2nccnc12`, the IC50 was found to be 2 µM in assay [1], 0.6 µM in assay [2] and 1 µM in assay [3].

Consider `Cc1c(-c2ccc(O)cc2)[nH]c2nccnc12`, for which the figures for the IC50 in assay [1], in assay [2] and in assay [3] were 0.2 µM, 0.52 µM and 0.25 µM, respectively.

Regarding `COc1cccc(-c2cc3[nH]ccnc-3n2)c1`, the results for the IC50 in assay [1], in assay [2] and in assay [3] were 10 µM, 3.2 µM and 13 µM, respectively.

For `CCCc1c(-c2ccc(O)cc2)[nH]c2nccnc12`, the IC50 in assay [1] was determined as 1.2 µM; in assay [2] it was 1.8 µM; in assay [3], 25 µM.

As for `CN(C)c1ccc(-c2cc3[nH]ccnc-3n2)cc1`, the IC50 was above 100 µM in assay [1], 12 µM in assay [2] and 20 µM in assay [3].

On to `COc1ccc(-c2[nH]c3nccnc3c2CC2CC2)cc1`, for which the IC50 is above 100 µM in assay [1], 1.1 µM in assay [2] and 1 µM in assay [3].

For `c1c[nH]c2cc(-c3ccc(C4OCCO4)cc3)nc-2n1`, the half-inhibitory concentration (IC50) in assay [1] was determined as 15 µM; in assay [2], 20 µM; in assay [3] it was 8 µM.

As for `c1c[nH]c2cc(-c3ccsc3)nc-2n1`, the IC50 in assay [1] came out at 1 µM; in assay [2], 0.8 µM; in assay [3] it was 2.3 µM.

Regarding `Oc1ccccc1-c1cc2[nH]ccnc-2n1`, the IC50 in assay [1] came to 3 µM; in assay [2], 6.5 µM; in assay [3], 2.5 µM.

With `COc1cc(OC)cc(-c2cc3[nH]ccnc-3n2)c1`, the half-inhibitory concentration (IC50) in assay [1] was above 100 µM; in assay [2], 60 µM; in assay [3], 100 µM.

As for `FC(F)(F)c1ccc(-c2cc3[nH]ccnc-3n2)cc1`, the IC50 in assay [1] was above 100 µM; in assay [2], 7.2 µM; in assay [3], 6 µM.

In the case of `CCCCc1c(-c2ccc(OC)cc2)[nH]c2nccnc12` [ALOISINE], the IC50 in assay [1] stood at 1.5 µM; in assay [2], 0.92 µM.

Regarding `N#Cc1ccc(-c2cc3[nH]ccnc-3n2)cc1`, the results for the IC50 in assay [1], in assay [2] and in assay [3] were 13 µM, 4.8 µM and 3 µM, respectively.

Consider `Fc1ccc(-c2cc3[nH]ccnc-3n2)cc1`, for which the results for the IC50 in assay [1], in assay [2] and in assay [3] were 1 µM, 1.9 µM and 2.3 µM, respectively.

On to `c1coc(-c2cc3[nH]ccnc-3n2)c1`, for which the IC50 was 9.3 µM in assay [1], 15 µM in assay [2] and 12 µM in assay [3].

`Cc1c(-c2ccc(Cl)cc2)[nH]c2nccnc12`: the IC50 turned out to be 5 µM in assay [1] and 1.7 µM in assay [2].

Consider `COc1ccc(-c2[nH]c3nccnc3c2C)cc1OC`, for which the IC50 in assay [1] is 1 µM; in assay [2], 2 µM; in assay [3] it was 1.1 µM.

Turning to `COc1cc(-c2cc3[nH]ccnc-3n2)cc(OC)c1OC`, the IC50 in assay [1] is above 100 µM; in assay [2] it was 85 µM; in assay [3], 100 µM.

In the case of `Brc1ccc(-c2cc3[nH]ccnc-3n2)cc1`, the 50% inhibitory concentration (IC50) in assay [1] is above 100 µM; in assay [2], 6 µM.

As to `COc1ccc(-c2cc3[nH]ccnc-3n2)cc1`, the results for the IC50 in assay [1], in assay [2] and in assay [3] were 4 µM, 1.1 µM and 2 µM, respectively.

`CCCCc1c(-c2ccc(Cl)cc2)[nH]c2nccnc12`: the IC50 in assay [1] is above 100 µM; in assay [2], 5.9 µM; in assay [3] it was 0.2 µM.

Take `c1ccc(-c2cc3[nH]ccnc-3n2)cc1`: the figures for the IC50 in assay [1], in assay [2] and in assay [3] were 4 µM, 2.3 µM and 5 µM, respectively.

Regarding `COc1ccc(-c2cc3ccc[nH]c-3n2)cc1`, in assay [3], the IC50 worked out at 60 µM.

For `COc1ccc(-c2[nH]c3nccnc3c2C)cc1`, the IC50 in assay [1] was 0.8 µM; in assay [2] it was 0.46 µM; in assay [3] it was 0.3 µM.

For `COc1ccc(-c2[nH]c3nccnc3c2C(C)C)cc1`, the IC50 in assay [1] worked out at 2 µM; in assay [2], 0.5 µM.

Consider `Cc1ccc(-c2cc3[nH]ccnc-3n2)cc1`, for which the IC50 is 10 µM in assay [1], 2.6 µM in assay [2] and 3 µM in assay [3].

On to `c1csc(-c2cc3[nH]ccnc-3n2)c1`, for which the figures for the IC50 in assay [1], in assay [2] and in assay [3] were 2 µM, 1.2 µM and 7 µM, respectively.

`Oc1ccc(-c2[nH]c3nccnc3c2CC2CC2)cc1`: the IC50 is above 100 µM in assay [1], 3 µM in assay [2] and 50 µM in assay [3].

Take `Cn1c(-c2ccccc2)cc2nccnc21`: the results for the IC50 in assay [2] and in assay [3] were above 100 µM and 100 µM, respectively.

As to `Clc1ccc(-c2[nH]c3nccnc3c2Cc2ccccc2)cc1`, the IC50 in assay [1] was above 100 µM; in assay [2] it was 6.8 µM.

Take `c1ccc2c(-c3cc4[nH]ccnc-4n3)cccc2c1`: the IC50 in assay [1] is 80 µM; in assay [2], 27 µM; in assay [3] it was above 100 µM.

`Clc1ccc(-c2cc3[nH]ccnc-3n2)cc1` had an IC50 in assay [3] of 1.8 µM.

As for `Clc1ccc(C2(c3cc4[nH]ccnc-4n3)CC2)cc1`, the IC50 in assay [1] was 100 µM; in assay [2], 1 µM; in assay [3], 30 µM.

In the case of `Clc1cc(Cl)cc(-c2cc3[nH]ccnc-3n2)c1`, the IC50 in assay [1], in assay [2] and in assay [3] was above 100 µM throughout.

On to `COc1ccc(-c2[nH]c3nccnc3c2CC2CCCCC2)cc1`, for which the figures for the IC50 in assay [1], in assay [2] and in assay [3] were above 100 µM, 6.8 µM and 5 µM, respectively.

Consider `Clc1ccc(-c2[nH]c3nccnc3c2CC2CCCCC2)cc1`, for which the values for the half-maximal inhibitory concentration (IC50) in assay [1], in assay [2] and in assay [3] were above 100 µM, 8 µM and 10 µM, respectively.
